# According to PubChem BioAssay (NCI):
#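 Results reflect a 48-hour exposure of cells in 96-well plates to compound at five concentrations. TGI is the concentration that stops growth completely.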
# System: K-562 leukemia
# Assay: NCI anticancer screen, dose series, 48 h
row,SMILES,TGI
1,Cc1cn2c(=O)c3ccccc3nc2s1,> 100 µM
2,O=C(CC(c1ccccc1)N1CCCCC1)c1ccccc1 (stereo not given),8.6 µM
3,O=C(c1ccccc1)c1c(-c2ccccc2)[nH]n(-c2ccc([N+](=O)[O-])cc2)c(=O)c1=O,> 100 µM
4,CCN(CC)CCn1nc(N)c2nc3cc(Cl)ccc3nc21,> 100 µM
5,Cc1ccc(S(=O)(=O)C2=Cc3ccc(C(F)(F)F)cc3C2(O)c2cccc(C(F)(F)F)c2)cc1 (stereo not given),6.34 µM
6,Nc1nc(Cl)cc(NCCO)n1,> 100 µM
7,COc1cccc(OC)c1/C=C1\OC(=O)c2cccc(OC)c21,> 100 µM

# System: UACC-257 melanoma
# Assay: NCI anticancer screen, dose series, 48 h
row,SMILES,TGI
1,Cc1cn2c(=O)c3ccccc3nc2s1,> 100 µM
2,O=C(CC(c1ccccc1)N1CCCCC1)c1ccccc1 (stereo not given),27.8 µM
3,O=C(c1ccccc1)c1c(-c2ccccc2)[nH]n(-c2ccc([N+](=O)[O-])cc2)c(=O)c1=O,> 100 µM
4,CCN(CC)CCn1nc(N)c2nc3cc(Cl)ccc3nc21,> 100 µM
5,Cc1ccc(S(=O)(=O)C2=Cc3ccc(C(F)(F)F)cc3C2(O)c2cccc(C(F)(F)F)c2)cc1 (stereo not given),3.93 µM
6,Nc1nc(Cl)cc(NCCO)n1,> 100 µM
7,COc1cccc(OC)c1/C=C1\OC(=O)c2cccc(OC)c21,> 100 µM

# System: M14 melanoma
# Assay: NCI anticancer screen, dose series, 48 h
row,SMILES,TGI
1,Cc1cn2c(=O)c3ccccc3nc2s1,> 100 µM
2,O=C(CC(c1ccccc1)N1CCCCC1)c1ccccc1 (stereo not given),42.3 µM
3,O=C(c1ccccc1)c1c(-c2ccccc2)[nH]n(-c2ccc([N+](=O)[O-])cc2)c(=O)c1=O,> 100 µM
4,CCN(CC)CCn1nc(N)c2nc3cc(Cl)ccc3nc21,> 100 µM
5,Cc1ccc(S(=O)(=O)C2=Cc3ccc(C(F)(F)F)cc3C2(O)c2cccc(C(F)(F)F)c2)cc1 (stereo not given),4.83 µM
6,Nc1nc(Cl)cc(NCCO)n1,> 100 µM
7,COc1cccc(OC)c1/C=C1\OC(=O)c2cccc(OC)c21,> 58.9 µM

# System: HL-60(TB) leukemia
# Assay: NCI anticancer screen, dose series, 48 h
row,SMILES,TGI
1,Cc1cn2c(=O)c3ccccc3nc2s1,> 100 µM
2,O=C(CC(c1ccccc1)N1CCCCC1)c1ccccc1 (stereo not given),33.7 µM
3,O=C(c1ccccc1)c1c(-c2ccccc2)[nH]n(-c2ccc([N+](=O)[O-])cc2)c(=O)c1=O,> 100 µM
4,CCN(CC)CCn1nc(N)c2nc3cc(Cl)ccc3nc21,> 100 µM
5,Cc1ccc(S(=O)(=O)C2=Cc3ccc(C(F)(F)F)cc3C2(O)c2cccc(C(F)(F)F)c2)cc1 (stereo not given),3.66 µM
6,COc1cccc(OC)c1/C=C1\OC(=O)c2cccc(OC)c21,> 19.7 µM

# System: MOLT-4 leukemia
# Assay: NCI anticancer screen, dose series, 48 h
row,SMILES,TGI
1,Cc1cn2c(=O)c3ccccc3nc2s1,> 100 µM
2,O=C(CC(c1ccccc1)N1CCCCC1)c1ccccc1 (stereo not given),3.92 µM
3,O=C(c1ccccc1)c1c(-c2ccccc2)[nH]n(-c2ccc([N+](=O)[O-])cc2)c(=O)c1=O,> 100 µM
4,CCN(CC)CCn1nc(N)c2nc3cc(Cl)ccc3nc21,> 100 µM
5,Cc1ccc(S(=O)(=O)C2=Cc3ccc(C(F)(F)F)cc3C2(O)c2cccc(C(F)(F)F)c2)cc1 (stereo not given),> 22.6 µM
6,Nc1nc(Cl)cc(NCCO)n1,> 100 µM
7,COc1cccc(OC)c1/C=C1\OC(=O)c2cccc(OC)c21,> 100 µM

# System: MALME-3M melanoma
# Assay: NCI anticancer screen, dose series, 48 h
row,SMILES,TGI
1,Cc1cn2c(=O)c3ccccc3nc2s1,> 100 µM
2,O=C(CC(c1ccccc1)N1CCCCC1)c1ccccc1 (stereo not given),30.7 µM
3,O=C(c1ccccc1)c1c(-c2ccccc2)[nH]n(-c2ccc([N+](=O)[O-])cc2)c(=O)c1=O,> 100 µM
4,CCN(CC)CCn1nc(N)c2nc3cc(Cl)ccc3nc21,> 100 µM
5,Cc1ccc(S(=O)(=O)C2=Cc3ccc(C(F)(F)F)cc3C2(O)c2cccc(C(F)(F)F)c2)cc1 (stereo not given),3.48 µM
6,Nc1nc(Cl)cc(NCCO)n1,> 100 µM
7,COc1cccc(OC)c1/C=C1\OC(=O)c2cccc(OC)c21,> 95.5 µM

# System: SF-268 CNS
# Assay: NCI anticancer screen, dose series, 48 h
row,SMILES,TGI
1,Cc1cn2c(=O)c3ccccc3nc2s1,> 100 µM
2,O=C(CC(c1ccccc1)N1CCCCC1)c1ccccc1 (stereo not given),33.4 µM
3,O=C(c1ccccc1)c1c(-c2ccccc2)[nH]n(-c2ccc([N+](=O)[O-])cc2)c(=O)c1=O,> 100 µM
4,CCN(CC)CCn1nc(N)c2nc3cc(Cl)ccc3nc21,> 100 µM
5,Cc1ccc(S(=O)(=O)C2=Cc3ccc(C(F)(F)F)cc3C2(O)c2cccc(C(F)(F)F)c2)cc1 (stereo not given),8.65 µM
6,Nc1nc(Cl)cc(NCCO)n1,> 100 µM
7,COc1cccc(OC)c1/C=C1\OC(=O)c2cccc(OC)c21,> 100 µM

# System: IGROV1 ovarian
# Assay: NCI anticancer screen, dose series, 48 h
row,SMILES,TGI
1,Cc1cn2c(=O)c3ccccc3nc2s1,> 100 µM
2,O=C(CC(c1ccccc1)N1CCCCC1)c1ccccc1 (stereo not given),29.1 µM
